Experiments:
Test in all cases: relative viability (nuclei count vs DMSO), 5 days (fraction); higher = more cells survive
[1] = compound: Cn1nnc2c(C(N)=O)ncn2c1=O [Temozolomide] + CC(C)C[C@H](NC(=O)[C@H](Cc1ccccc1)NC(=O)c1cnccn1)B(O)O [Bortezomib] (partner 0.002 µM)
Summary of the method: (§1)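 Lung cancer cell lines in 1536-well plates were dosed by pin tool the day after seeding, either with one drug alone or with a fixed anchor-drug dose plus five library-drug doses (not always all listed) in √10 steps. After 5 days, cells were fixed and their nuclei stained in one step (final 0.05% Triton X-100, 1% formaldehyde, 1 ug/ml Hoechst), then counted on 4× images. Relative viability is the nuclei count in treated wells divided by that in vehicle wells. Values are medians of duplicate plates.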

AZD5582 + Tozasertib = compound: C[C@@H](C(=O)N[C@@H](C1CCCCC1)C(=O)N2CCC[C@H]2C(=O)N[C@@H]3[C@@H](CC4=CC=CC=C34)OCC#CC#CCO[C@@H]5CC6=CC=CC=C6[C@@H]5NC(=O)[C@@H]7CCCN7C(=O)[C@H](C8CCCCC8)NC(=O)[C@H](C)NC)NC [AZD5582] + Cc1cc(Nc2cc(N3CCN(C)CC3)nc(Sc3ccc(NC(=O)C4CC4)cc3)n2)n[nH]1 [Tozasertib] (partner 0.1 µM)
Summary of the method: as §1

Temozolomide + Foretinib = compound: Cn1nnc2c(C(N)=O)ncn2c1=O [Temozolomide] + COc1cc2c(Oc3ccc(NC(=O)C4(C(=O)Nc5ccc(F)cc5)CC4)cc3F)ccnc2cc1OCCCN1CCOCC1 [Foretinib] (partner 0.25 µM)
Summary of the method: as §1

[2] = compound: Cn1nnc2c(C(N)=O)ncn2c1=O [Temozolomide] + C[C@]1(O)C[C@@H](c2nc(-c3ccc4ccc(-c5ccccc5)nc4c3)c3c(N)nccn32)C1 [Linsitinib] (partner 1 µM)
Summary of the method: as §1

Row | Cell Line | relative viability ([1]; first compound 0.2 µM) | relative viability ([1]; first compound 0.6325 µM) | relative viability ([1]; first compound 2 µM) | relative viability ([1]; first compound 6.325 µM) | relative viability ([1]; first compound 20 µM) | relative viability (AZD5582 + Tozasertib; first compound 0.001581 µM) | relative viability (AZD5582 + Tozasertib; first compound 0.005 µM) | relative viability (AZD5582 + Tozasertib; first compound 0.01581 µM) | relative viability (AZD5582 + Tozasertib; first compound 0.05 µM) | relative viability (Temozolomide + Foretinib; first compound 0.2 µM) | relative viability (Temozolomide + Foretinib; first compound 0.6325 µM) | relative viability (Temozolomide + Foretinib; first compound 2 µM) | relative viability (Temozolomide + Foretinib; first compound 6.325 µM) | relative viability (Temozolomide + Foretinib; first compound 20 µM) | relative viability ([2]; first compound 0.2 µM) | relative viability ([2]; first compound 0.6325 µM) | relative viability ([2]; first compound 2 µM) | relative viability ([2]; first compound 6.325 µM) | relative viability ([2]; first compound 20 µM)
1 | UMC-11 | 0.861 | 0.924 | 0.945 | 0.519 | 0.377 | 0.207 | 0.203 | 0.196 | 0.203 | 1.11 | 1.06 | 1.16 | 0.872 | 0.57 | 1 | 1.06 | 0.942 | 0.91 | 0.584
2 | NCI-H2023 | 1.01 | 0.905 | 1.05 | 0.933 | 0.855 | 0.209 | 0.345 | 0.499 | 0.305 | 0.825 | 0.749 | 0.847 | 0.68 | 0.848 | 0.567 | 0.7 | 0.665 | 0.712 | 0.662
3 | NCI-H1915 | 0.972 | 0.96 | 0.933 | 0.729 | 0.354 | 0.379 | 0.452 | 0.447 | 0.42 | 1.11 | 1.04 | 1 | 0.733 | 0.429 | 1.15 | 1.02 | 0.969 | 0.711 | 0.402
4 | PC-14 | 0.94 | 0.872 | 0.943 | 0.83 | 1.04 | 0.521 | 0.595 | 0.558 | 0.6 | 1.07 | 0.98 | 1.03 | 1.01 | 0.202 | 0.96 | 0.942 | 0.984 | 0.871 | 0.837
5 | LCLC-97TM1 | 1.48 | 0.594 | 0.749 | 0.68 | 0.687 | 0.206 | 0.235 | 0.206 | 0.187 | 0.919 | 0.906 | 0.86 | 0.979 | 0.934 | 0.191 | 0.19 | 0.173 | 0.176 | 0.203
6 | LU99A | 1.28 | 1.17 | 1.07 | 1.06 | 1.01 | 0.252 | 0.349 | 0.289 | 0.279 | 0.874 | 0.851 | 0.832 | 0.784 | 0.73 | 0.595 | 0.514 | 0.551 | 0.564 | 0.572
7 | HCC-366 | 1.07 | 1.07 | 1.1 | 1.08 | 1.06 | 0.0633 | 0.134 |  | 0.155 | 0.941 | 0.94 | 0.947 | 0.932 | 0.528 | 0.607 | 0.708 | 0.72 | 0.709 | 0.762
8 | HOP-62 | 0.801 | 0.88 | 0.911 | 0.59 | 0.932 | 0.318 | 0.339 | 0.35 | 0.32 | 1.33 | 1.08 | 1.14 | 1.1 | 1.04 | 1.05 | 1.01 | 0.895 | 0.832 | 0.866
9 | NCI-H322M |  | 1.25 | 1.19 | 1.2 | 0.962 | 0.499 | 0.579 |  | 0.523 |  | 0.937 | 1.12 | 0.982 | 0.864 |  | 1.02 | 1.02 | 0.959 | 0.665
10 | NCI-H661 |  | 0.889 | 0.887 | 0.844 | 0.864 | 0.361 | 0.368 | 0.389 | 0.358 | 0.941 | 1.01 | 1.05 | 0.955 | 0.963 |  | 0.54 | 0.641 | 0.442 | 0.525
11 | NCI-H650 | 1.18 | 1.08 | 0.787 | 0.807 | 0.941 | 0.648 | 0.876 | 0.722 | 0.628 | 0.898 | 0.991 | 1.06 | 1 | 1.07 | 1.08 | 0.893 | 1.05 | 0.735 | 0.83
